Results taken from patent US11407796B2, “Antisecretory factor 17” (LANTMÄNNEN AS-FAKTOR AB, priority 2016, dated 2022).
Where two headings read alike, the source gives them in different places. Ends that are not written are not given here. Peptide text beside a SMILES is read from it. * marks the point of attachment. Succinimide(1-Et,3-yl) = CCN1C(=O)CC(*)C1=O

Tests used:
[1] = AF16 and AF16-NEM stability in human plasma; type: in vitro ADME; conditions: for half-life: 37° C.
Description: Test of AF16 and AF16-NEM stability in plasma was performed using pooled human plasma (4 donors, two female+two male) in HPLC glass vials at 37° C. (20 μM incubation conc.). Four different matrices were tested: Plasma: isotonic 67 mM potassium phosphate pH 7.4 (KP) (1:1), plasma:KP+0.1 mM DTT, KP and KP+0.1 mM DTT. Incubation times were 0, 1.5 and 3 h. At the indicated times a 50 μl aliquot was extracted and quenched/precipitated in 150 μl ice-cold methanol and frozen until analysis. Relative quantification was performed UPLC-MS/MS.
AF16, the stable isotope labeled (SIL) AF16 and the alkylated analog AF16-NEM were incubated at 1 μM in human plasma: 0.1M potassium phosphate pH 7.4 (KP) (1:1), human plasma: KP (1:1)+1 mM DTT, KP or KP+1 mM DTT over 3 h at 37° C. to investigate stability. KP was included to provide buffer capacity to the plasma and to not confuse the results with pH related effects.

[2] = AF16 stability and metabolite formation with Caco-2 cells; type: in vitro ADME; conditions: Caco-2, 50 μM, apical side of Caco-2 cells
Description: (§1) Investigation of the fate of AF16 in the presence of Caco-2 cells was performed on three separate occasions. Firstly, a quantitative measurement was performed using MRM methodology (table 1) over 0, 15, 30 and 60 min. Here, AF16 or its possible sulfonic acid metabolite was monitored both in the apical and in the basolateral compartment (not shown). The second experiment was a qualitative determination of the fate of AF16 during a 60 min incubation. 50 μM AF16 in HBSS buffer was incubated at the apical side of the Caco-2 cell monolayer and 100 μl aliquots was extracted at 5, 10, 20, 30 and 60 min. The sample was placed on a 96-well plate containing 100 μl MeCN/H2O. The plate was sealed and frozen until full-scan UPLC-MS analysis (see below and table 2). The third experiment was a mirror of the second and the only difference was that a HBSS solution of AF16:AF16 IS (1:1) was used, to aid in the structure elucidation.
(§2) All samples from the different assays were analyzed by UPLC-MS/MS. The following system was used, a Waters XEVO TQ triple-quadrupole mass spectrometer (electrospray ionization, ESI) coupled to a Waters Acquity UPLC (VVaters Corp.). For chromatographic separation a general gradient was used (1% mobile phase B to 50% over 3 min total run) on a C18 BEH 1.7 μm column 2×100 mm (VVaters Corp.). Mobile phase A consisted of 0.05% TFA and mobile phase B 100% acetonitrile. The flow rate was 0.5 ml/min. In the full-scan MS analysis the same chromatographic settings was used except that 10 μl was injected (full loop). The MS was set to scan for ions in the 100-400 or 400-700 m/z window using the cone voltage in table 1.
(§3) It is well known that in the intestine, and as such at the apical side of Caco-2 cells, brush-border peptidases exist. To further investigate this, a separate experiment was designed. Caco-2 cells were exposed at the apical side to 50 μM AF16, with or without a protease inhibitor cocktail, and were sampled over 1 h.

[3] = test system: Caco-2 cells; test: as above; type: in vitro ADME
Description: as §1, §2, §3

[4] = AF16 metabolite identification in human plasma; type: in vitro ADME
Description: (§4) (10 μM incubation conc.).
(§5) The flow rate was 0.5 ml/min.
(§6) AF16 and the isotopically labelled peptide in similar quantity were incubated in plasma of rat and human as described above. For analysis of full scan MS data, the metabolite identification software from Sciex, Lightsight, was used, which compares the incubated MS response to the quality control (QC) sample and assigns apparent peaks as metabolites with specific mass over charge (m/z) values. The software is currently not optimal to use with multi-charged compounds such as peptides so the hit-rate of metabolite detection is fairly high and manual assessment of each found peak had to be performed. The largest metabolite peak areas were then rank ordered and in some cases verified by MS/MS fragmentation. Skyline methodology was used to predict fragmentation of the identified peptides, but also aided in creating sensitive MRM methods so that low amounts could be monitored.

[5] = AF16 metabolite identification in rat plasma; type: in vitro ADME
Description: as §4, §5, §6

[6] = plasma
[7] = Kinetics of AF16 and metabolites in plasma with ZnSO4 precipitant +/-DTT; type: in vitro ADME, human, rat; conditions: plasma precipitated with ZnSO4, +/−DTT
Excerpt: The kinetics shown in FIG. 13 was surprising given the fact that DTT was used in the quenching solution with TCA, although it is likely that the reducing capability of DTT is lowered in acidic conditions. It was therefore tested if the same pattern occurred when using a neutral precipitant ZnSO4 (without NaOH). This precipitation method is not as efficient but would hopefully give more information on the formation of the major disulfide products.

[8] = human plasma:KP (1:1) + DTT, read-out: in vitro half-life (t½) with DTT (converted)
[9] = human plasma:KP pH 7.4 (1:1), no DTT, read-out: in vitro half-life (t½) (converted)
[10] = 30 min incubation of AF16, (+) inhibitor cocktail
[11] = 30 min incubation of AF16, (−) inhibitor cocktail
[12] = 60 min incubation of AF16, (+) inhibitor cocktail
[13] = 60 min incubation of AF16, (−) inhibitor cocktail

Molecule	half-life [1, 8]	half-life [1, 9]	half-life ([2]; with protease inhibitor cocktail (Bestatin, Diprotin A, Captopril), read-out: t½ of degradation with inhibitor cocktail)	half-life ([2]; without inhibitor cocktail, read-out: t½ of degradation)	t½ of degradation with inhibitor cocktail ([3]; 50 μM, apical side of Caco-2 cells, with protease inhibitor cocktail (Bestatin, Diprotin A, Captopril))	Tentative amounts (%) of molecular species [3, 10]	Tentative amounts (%) of molecular species [3, 11]	Tentative amounts (%) of molecular species [3, 12]	Tentative amounts (%) of molecular species [3, 13]	% of QC area at 30 min incubation time [4]	% of QC area at 30 min incubation time [5]	half-life [6]	fold higher stability than AF16 ([1]; human plasma, no DTT)	resilience of the disulfide against DTT reduction [7]
CC(C)C[C@H](NC(=O)CNC(=O)[C@@H](NC(=O)[C@H](CC(N)=O)NC(=O)[C@H](CC(N)=O)NC(=O)[C@H](CCC(=O)O)NC(=O)[C@@H]1CCCN1C(=O)[C@H](CC(N)=O)NC(=O)[C@H](CO)NC(=O)[C@H](CCCNC(=N)N)NC(=O)[C@@H](NC(=O)[C@H](CCCCN)NC(=O)[C@H](CO)NC(=O)[C@H](Cc1c[nH]cn1)NC(=O)[C@H](CS)NC(=O)[C@@H](N)C(C)C)[C@@H](C)O)C(C)C)C(=O)O [AF16, VCHSKTRSNPENNVGL] (H-VCHSKTRSNPENNVGL-OH; N-terminus and C-terminus assumed)	66 min	24 min	57 min	8 min	55 min	79%	6%	63%	1%	1%	4%	≤ 10 min	–	–
CCN1C(=O)CC(SC[C@H](NC(=O)[C@@H](N)C(C)C)C(=O)N[C@@H](Cc2c[nH]cn2)C(=O)N[C@@H](CO)C(=O)N[C@@H](CCCCN)C(=O)N[C@H](C(=O)N[C@@H](CCCNC(=N)N)C(=O)N[C@@H](CO)C(=O)N[C@@H](CC(N)=O)C(=O)N2CCC[C@H]2C(=O)N[C@@H](CCC(=O)O)C(=O)N[C@@H](CC(N)=O)C(=O)N[C@@H](CC(N)=O)C(=O)N[C@H](C(=O)NCC(=O)N[C@@H](CC(C)C)C(=O)O)C(C)C)[C@@H](C)O)C1=O (stereo partly shown) [AF16-NEM] (H-VC(Succinimide(1-Et,3-yl))HSKTRSNPENNVGL-OH; N-terminus and C-terminus assumed)	252 min	108 min	–	–	–	–	–	–	–	–	–	–	~5 fold	–
CC(C)C[C@H](NC(=O)CNC(=O)[C@@H](NC(=O)[C@H](CC(N)=O)NC(=O)[C@H](CC(N)=O)NC(=O)[C@H](CCC(=O)O)NC(=O)[C@@H]1CCCN1C(=O)[C@H](CC(N)=O)NC(=O)[C@H](CO)NC(=O)[C@H](CCCNC(=N)N)NC(=O)[C@@H](NC(=O)[C@H](CCCCN)NC(=O)[C@H](CO)NC(=O)[C@@H](N)Cc1c[nH]cn1)[C@@H](C)O)C(C)C)C(=O)O [M3, HSK TRSNP ENNVG L] (H-HSKTRSNPENNVGL-OH; N-terminus and C-terminus assumed)	–	–	–	–	–	2%	38%	4%	24%	0.9%	0.4%	–	–	–
C[SCC]HSKTRSNPENNVGL (not fully specified (N-terminus); printed as C[SCC]HSKTRSNPENNVGL; also: [SCC] on the N-terminal Cys, meaning not given here) [M10]	–	–	–	–	–	–	–	–	–	–	–	–	–	resilient
